In ChEMBL document CHEMBL1255360, “Daptomycin exerts bactericidal activity without lysis of Staphylococcus aureus” (2008):
In brackets after ≈: the same amount, converted by molar mass. Activity calls are given as the source filed them. The rule behind the calls is not given here.

Legend:
Staphylococcus aureus [1] = test: Bactericidal activity against Staphylococcus aureus ATCC 29213 assessed as membrane permeability at 4 ug/ml by ToPro3 dye based assay; type: functional, organism-based
Staphylococcus aureus [2] = test: Bactericidal activity against Staphylococcus aureus ATCC 29213 assessed as cell lysis at 4 ug/ml after 60 mins by transmission electron microscopy; type: functional, organism-based
Staphylococcus aureus [3] = test: Bactericidal activity against Staphylococcus aureus ATCC 29213 assessed as cell lysis at 4 ug/ml after 120 mins; type: functional, organism-based
Staphylococcus aureus [4] = test: Bactericidal activity against Staphylococcus aureus ATCC 29213 assessed as calcein release at 4 ug/ml; type: functional, organism-based
Staphylococcus aureus [5] = test: microbe, parasite or virus in culture; conditions: ATCC 29213
Description: Antimicrobial activity against Staphylococcus aureus ATCC 29213

Staphylococcus aureus [6] = test: Bactericidal activity against Staphylococcus aureus ATCC 29213 assessed as altered cell morphology at 4 ug/ml after 60 mins by transmission electron microscopy; type: functional
Staphylococcus aureus [7] = test: Bactericidal activity against Staphylococcus aureus ATCC 29213 assessed as cell lysis at MIC after 120 mins; type: functional
Staphylococcus aureus [8] = test: Bactericidal activity against Staphylococcus aureus ATCC 29213 assessed as decrease in cell viability at MIC after 120 mins; type: functional
Staphylococcus aureus [9] = test: Bactericidal activity against Staphylococcus aureus ATCC 29213 assessed as decrease in cell viability at 4 ug/ml within 120 mins; type: functional

SMILES | Activity (Staphylococcus aureus [1]) | Activity (Staphylococcus aureus [2]) | Activity (Staphylococcus aureus [3]) | Activity (Staphylococcus aureus [4]) | MIC (Staphylococcus aureus [5]) [µg/mL] | Activity (Staphylococcus aureus [6]) [%] | Activity (Staphylococcus aureus [7]) [%] | fold change (FC) (Staphylococcus aureus [8]) | fold change (FC) (Staphylococcus aureus [9])
CCCCCCCCCC(=O)N[C@@H](Cc1c[nH]c2ccccc12)C(=O)N[C@H](CC(N)=O)C(=O)N[C@@H](CC(=O)O)C(=O)N[C@@H]1C(=O)NCC(=O)N[C@@H](CCCN)C(=O)N[C@@H](CC(=O)O)C(=O)N[C@H](C)C(=O)N[C@@H](CC(=O)O)C(=O)NCC(=O)N[C@H](CO)C(=O)N[C@@H]([C@H](C)CC(=O)O)C(=O)N[C@@H](CC(=O)c2ccccc2N)C(=O)O[C@@H]1C | inactive | inactive | inactive | inactive | 0.5 (≈ 0.309 µM) | >90 | 50 | 200 | >1000
O=C(O)c1cn(C2CC2)c2cc(N3CCNCC3)c(F)cc2c1=O | inactive |  |  |  |  |  |  |  | 
